Assay results published in patent publication US20260034119A1, “5-METHOXY-N,N-[…][…], THEIR […], AND METHODS FOR TREATMENT OF NEUROLOGICAL, […], AND SUBSTANCE USE DISORDERS” (priority 2023, published 2026).
Read-outs that look alike come from different tables or passages of the source.

Test: In vivo pharmacokinetics in mice (plasma and brain, subcutaneous)
Parameters: species or system mouse
Details: for Kp / Cmax: male, C57BL/6, mouse, sc, 1 mg/kg; for Kp: brain and plasma
Experimental: Test System: Healthy male C57BL/6 mice (8-12 weeks old) weighing between 20 to 35 g were procured from Global (India). Three mice were housed in each cage. Temperature and humidity were maintained at 22±3° C. and 30-70%, respectively and illumination was controlled to give a sequence of 12 hr light and 12 hr dark cycle. Temperature and humidity were recorded by auto-controlled data logger system. All animals were provided laboratory rodent diet (Envigo Research Private Ltd, Hyderabad, India). Reverse osmosis water treated with UV light was provided ad libitum.
Study Design: Total twenty-seven male mice were used in this study with 3 mice/time point design. Animals were administered subcutaneously […] with solution formulation of compound at the requited dose.
Formulation Preparation: Accurately weighed of the desired compound was taken in a labeled bottle. To this the appropriate amount of normal saline was added, vortexed and followed by addition of 2 mol. equiv. of glacial acetic acid. The above formulation was again vortexed and sonicated for about 1 h with intermittent vortexing to obtain clear solution. The final dose formulation was filtered through 0.45 micron filter. No adverse clinical signs in any animals during study period.
Sample Collection: Blood samples (approximately 60 μL) were collected under light isoflurane anesthesia (Surgivet®) from retro orbital plexus from a set of three mice at 0.083, 0.25, 0.5, 1, 2, 4, 8, and 12 hr. Immediately after blood collection, plasma was harvested by centrifugation at 4000 rpm, 10 min at […] and samples were stored at −70±10° C. until bioanalysis. Following blood collection, immediately animals were sacrificed followed by abdominal vena-cava was cut open and whole body was perfused from heart using 10 mL of normal saline. Brain samples were collected from set of three mice at 0.083, 0.25, 0.5, 1, 2, 4, 8, and 12 hr. After isolation, brain samples were rinsed three times in ice cold normal saline (for 5-10 seconds/rinse using ˜5-10 mL normal saline in disposable petri dish for each rinse) and dried on blotting paper. Brain samples were homogenized using ice-cold phosphate buffer saline (pH-7.4). Total homogenate volume was three times the tissue weight. All homogenates were stored below −70±10° C. until bioanalysis.
Concentrations of the compound in mouse plasma and brain samples were determined by fit for purpose LC-MS/MS method. The sample processing and extraction procedure, chromatographic and mass spectrometric conditions as follows:
Non-Compartmental-Analysis tool of Phoenix WinNonlin® Version 8.0 (Certara, Princeton, NJ, USA) was used to assess the pharmacokinetic parameters. Peak plasma concentration (Cmax) and time for the peak plasma concentration (Tmax) were the observed values. The areas under the concentration time curve (AUClast and AUCinf) were calculated by linear trapezoidal rule. The terminal elimination rate constant, ke was determined by regression analysis of the linear terminal portion of the log plasma concentration-time curve. Tissue-Kps were calculated using Microsoft Excel® (Microsoft Corporation, […], WA, USA).

SMILES: COc1ccc2[nH]cc(CCN3CCCC3)c2c1F [4-F, 5-MeO-PyrT, 4-Fluoro, 5-methoxypyrrolidinyl-tryptamine]
- Kp (mouse, 1 mg/kg s.c., read-out: total brain:plasma ratio): 3.3
- Kp (mouse, 1 mg/kg s.c., read-out: unbound brain:plasma ratio): 0.91
- Cmax (brain, mouse brain, 1 mg/kg SC, read-out: Total Cmax (ng/mL), Brain): 143 ng/mL
- Cmax (brain, mouse, 1 mg/kg subcutaneous, read-out: Cmax/brain): 143 ng/mL
- Cmax (plasma, mouse plasma, 1 mg/kg SC, read-out: Total Cmax (ng/mL), Plasma): 44 ng/mL
- Total AUClast ((hr*ng)/mL), Brain (mouse brain, 1 mg/kg SC): 128.34 ng·h/mL
- time at which brain penetration peaks (mouse brain, 1 mg/kg s.c.): 30 min
- Total AUClast ((hr*ng)/mL), Plasma (mouse plasma, 1 mg/kg SC): 26.40 ng·h/mL
- compound largely cleared within (mouse, 1 mg/kg s.c.): ≤ 2 h
- estimated free drug concentration in the brain at Tmax (mouse, 1 mg/kg s.c.): ~100 nM
